What was measured:
[1] = prior art; cited from earlier work
Z. bailii = test: Antimicrobial efficacy of emulsions, growth measured by optical density at 600 nm; assay type: cell-based, Zygosaccharomyces bailii; conditions: time course; 45.5 ppm thyme oil and 13 ppm LAE emulsion, or 13 ppm lauric arginate alone; FIG. 4
Protocol: Antimicrobial efficacy of emulsions of the invention is assessed by back diluting a mid-log phase, overnight culture of Z. bailii 1:100 into fresh acidified (pH 5) yeast peptone dextrose broth and adding the appropriate concentration of emulsion. Emulsions are prepared and tested in duplicate. Controls of lauric arginate are prepared in the same buffer with corn oil substituted for essential oil, at the same concentration. To test thyme oil alone, ethanol is used as a vehicle to solubilize the thyme oil in the microbiological media.
The antimicrobial efficacy of the formulations was evaluated against the relevant spoilage organism Z. bailii after 72 hours of incubation, as measured by optical density at 600 nm. See FIG. 3 which compares the growth of Z. bailii under differing conditions. Z. bailii was treated to emulsions comprising 52.5 ppm Thyme oil and 15 ppm lauric arginate (LAE); 52.5 ppm Thyme essential oil alone; or 15 ppm lauric arginate alone. […]
Additional studies were conducted in order to ascertain the temporal component of lauric arginate activity. […] Cells are treated to 45.5 ppm Thyme oil and 13 ppm lauric arginate (LAE) emulsion; 45.5 ppm Thyme essential oil alone; or 13 ppm lauric arginate alone, and the OD600 of the cultures were measured over time. […]

Q: With `Cc1ccc(C(C)C)cc1O` [carvacrol] as the compound, how does the “level at which synergy with lauric arginate was reported” value [1] read?
A: The value was 60 ppm.

Q: For `CCCCCCCCCCCC(=O)N[C@@H](CCCN=C(N)N)C(=O)OCC` [lauric arginate, Lauric arginate], which “growth inhibition over time (OD600)” value (Z. bailii) is on record?
A: The value was “not inhibitory”.

Q: Which “synergy with lauric arginate” value [1] does the source give for `Cc1ccc(C(C)C)c(O)c1` [thymol] here?
A: The value was “not to possess synergy”.
